Values joined by “and” are separate entries in the source; they are usually repeats but may differ in a detail not shown here. Identical values can stand only once.
Legend:
Assay type in all cases: in vitro ADME
CYP2C9 = CYP2C9 (Homo sapiens, UniProt P11712); assay: Effect of specific inhibitor sulfaphenazole on CK metabolism in HLMs; design: tissue Cypex Ltd. (U.K.); host or cells: pooled human liver microsomes; settings: CK 50 μM, in the presence of sulfaphenazole 1 μM
Protocol: (§1) The method was conducted according to our previous study with some modifications. The CYP isoform-specific probe reactions used were phenacetin O-deethylation (for CYP1A2), coumarin 7-hydroxylation (for CYP2A6), tolbutamide 4-hydroxylation (for CYP2C9), metoprolol α-hydroxylation (for CYP2D6), chlorzoxazone 6-hydroxylation (for CYP2E1),S-Mephenytoin 4-hydroxylation (for CYP2C19), and midazolam 1-hydroxylation (for CYP3A4). The kinetic study of CK was conducted with HLMs. A 0.2 mL incubation mixture that consisted of CK (as a substrate), the HLMs (0.5 mg/mL) or CYP isoforms (10 pmol), and 0.1 M sodium phosphate buffer (pH 7.4) was pre-warmed for 5 min at 37°C. The reaction was initiated by the addition of 1 mg/mL triphosphopyridine nucleotide (NADPH). […]
To screen the specific CYP isoform responsible for the CK metabolism, we determined the inhibitory effect of specific inhibitors on the metabolism of CK in the HLMs as described in detail previously. […] The inhibitory effects of the above specific inhibitors on the metabolic clearance rate of CK were evaluated separately to screen the CYP isoforms responsible for the CK metabolism. The relative activity of the CYP isoforms was calculated by dividing the peak area of CK when incubated with the inhibitor by that of CK from the negative controls. […]

[1] = tested on: human liver microsomes (HLMs); assay: Kinetic analysis of CK metabolism in human liver microsomes; settings: HLMs 0.5 mg/mL, CK 10–100 μM, 37°C, 30 min, NADPH
Protocol: as §1, with “(NADPH). All the reagents were dissolved in methanol, and the final solvent concentration in all incubations (including the controls) was 1%. The final incubations were performed in a shaking water bath (37°C) for 30 min. The reactions were stopped by adding 0.2 mL ice-cold acetonitrile, which contains irbesartan (114.9 ng/mL) as the internal standard. The samples were vortexed for 5 min. After centrifugation (12000×g for 10 min), the supernatants were transferred, and aliquots of 20 μL were injected into the HPLC-MS/MS system for analysis.” for “(NADPH).”

[2] = as above; settings: human, human liver microsomes, pH 7.4, HLMs 0.5 mg/mL, CK 10–100 μM, 37°C, NADPH
Protocol: as §1, with “(NADPH). All the reagents were dissolved in methanol, and the final solvent concentration in all incubations (including the controls) was 1%. The final incubations were performed in a shaking water bath (37°C) for 30 min. The reactions were stopped by adding 0.2 mL ice-cold acetonitrile, which contains irbesartan (114.9 ng/mL) as the internal standard. The samples were vortexed for 5 min. After centrifugation (12000×g for 10 min), the supernatants were transferred, and aliquots of 20 μL were injected into the HPLC-MS/MS system for analysis.” for “(NADPH).”

Chain of CYP2C9 (P11712 whole entry, canonical isoform): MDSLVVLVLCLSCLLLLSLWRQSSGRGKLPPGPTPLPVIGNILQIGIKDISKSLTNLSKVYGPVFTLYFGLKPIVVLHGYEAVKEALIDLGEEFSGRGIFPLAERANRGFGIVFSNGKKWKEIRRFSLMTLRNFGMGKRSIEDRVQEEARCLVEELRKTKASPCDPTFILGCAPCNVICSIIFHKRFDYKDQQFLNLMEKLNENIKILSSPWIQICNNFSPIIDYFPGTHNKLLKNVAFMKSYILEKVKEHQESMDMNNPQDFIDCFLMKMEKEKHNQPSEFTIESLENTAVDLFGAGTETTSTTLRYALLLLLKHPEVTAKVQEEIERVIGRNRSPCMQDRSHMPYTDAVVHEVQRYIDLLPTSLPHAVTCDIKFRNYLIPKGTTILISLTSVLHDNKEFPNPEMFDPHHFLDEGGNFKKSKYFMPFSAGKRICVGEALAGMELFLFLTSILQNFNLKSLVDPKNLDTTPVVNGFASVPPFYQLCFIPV

CC(C)=CCC[C@](C)(OC1O[C@H](CO)[C@@H](O)[C@H](O)[C@H]1O)[C@H]1CC[C@]2(C)[C@@H]1[C@H](O)C[C@@H]1[C@@]3(C)CC[C@H](O)C(C)(C)[C@@H]3CC[C@]12C (stereo partly drawn) [CK, 20-O-β-(D-glucopyranosyl)-20(S)-protopanaxadiol]
metabolic clearance rate (MCR) of CK, of that of the control (CYP2C9): 73.5±20.9% and 73.5% | Vmax of CK metabolism [1]: 0.28±0.04 nmol/mg protein/min and 0.2840 nmol/mg protein/min | Km at 30 min [2]: 84.2 ± 21.9 µM

— publication PMC4742234, “Screening of Drug Metabolizing Enzymes for the Ginsenoside Compound K In Vitro: An Efficient Anti-Cancer Substance Originating from Panax Ginseng” (PLoS ONE, 2016)
